Each block holds one molecule with its values, some of them ahead of it.
Tests used:
[1] = test system: Trypanosoma cruzi; experiment: Antitrypanosomal activity against Trypanosoma cruzi Tulahuen 2 at 25 uM after 5 days; type: functional; conditions: Tulahuen 2, 120 h, read-out: GI
[2] = test system: Trypanosoma cruzi; experiment: Antitrypanosomal activity against Trypanosoma cruzi Tulahuen 2 after 5 days; type: functional; conditions: Tulahuen 2, 120 h, read-out: ID50 (the source's name)
[3] = Cytotoxicity against human THP1 cells after 48 hrs; type: cell-based; conditions: THP-1 cells, read-out: ID50
[4] = Therapeutic index, ID50 for human THP1 cells to ID50 for Trypanosoma cruzi; type: cell-based; conditions: THP-1 cells versus Trypanosoma cruzi, read-out: TI

Structure (SMILES): C/C(=N\NC(=S)N(C)C)c1ccc([N+](=O)[O-])cc1
inhibition of growth at 25 µM [1]: 100%
IC50 [2]: 0.28 µM
CC50 at 48 h [3]: > 400 µM
selectivity ratio [4]: > 1430

Structure (SMILES): O=C(Cn1ccnc1[N+](=O)[O-])NCc1ccccc1 [BENZNIDAZOLE]
inhibition of growth at 25 µM [1]: 100%
IC50 [2]: 7.4 µM
CC50 at 48 h [3]: > 300 µM
selectivity ratio [4]: > 40

Structure (SMILES): CC1CS(=O)(=O)CCN1/N=C/c1ccc([N+](=O)[O-])o1 (stereo not drawn) [NIFURTIMOX]
inhibition of growth at 25 µM [1]: 100%
IC50 [2]: 7.7 µM
CC50 at 48 h [3]: > 300 µM
selectivity ratio [4]: > 38

Now from value to molecule, other results behind:

IC50 [2]: > 25 µM
Structure (SMILES): CNC(=S)N/N=C(\C)c1ccc([N+](=O)[O-])cc1
inhibition of growth at 25 µM [1]: 31%
CC50 at 48 h [3]: > 400 µM
selectivity ratio [4]: > 16

IC50 [2]: > 25 µM
Structure (SMILES): C/C(=N\NC(=S)N1CCCCC1)c1ccc([N+](=O)[O-])cc1
inhibition of growth at 25 µM [1]: 12%

Reference: ChEMBL document CHEMBL1156673, “4-nitroacetophenone-derived thiosemicarbazones and their copper(II) complexes with significant in vitro anti-trypanosomal activity” (Eur J Med Chem, 2008)
